Here are results for 25 compounds from US5300506A, “Indolylalkyl derivatives of pyrimidinylpiperazine for treating vascular headache” (Bristol-Myers Squibb Company, priority 1992, dated 1994).

Structures can show the parent of a compound that is named as a salt.

A word on the IC50: it is the concentration needed to halve the response being measured. High values mean weaker potency, low ones greater potency.

T1 sequence (F1MGM3 1-403): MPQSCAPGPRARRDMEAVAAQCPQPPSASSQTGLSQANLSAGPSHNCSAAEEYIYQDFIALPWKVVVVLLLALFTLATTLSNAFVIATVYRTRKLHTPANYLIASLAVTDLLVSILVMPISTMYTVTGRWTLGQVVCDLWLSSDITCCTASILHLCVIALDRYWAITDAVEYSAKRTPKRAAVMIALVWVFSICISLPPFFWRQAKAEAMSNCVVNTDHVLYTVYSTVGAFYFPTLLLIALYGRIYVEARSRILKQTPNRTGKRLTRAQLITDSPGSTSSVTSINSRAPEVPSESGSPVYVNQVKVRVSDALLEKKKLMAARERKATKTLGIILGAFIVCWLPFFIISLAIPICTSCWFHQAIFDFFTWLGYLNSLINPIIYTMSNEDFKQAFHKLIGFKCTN

One series addresses T1, 5-HT1D (Bos taurus, UniProt F1MGM3).
T1 construct: from tissue
The series can be described thus: 5-HT1D binding site affinity (tritiated serotonin; methodology of Heuring and Peroutka with minor modifications). Conditions: in vitro. As to the method:
Determination of 5-HT1D binding properties was accomplished employing methodology such as that described by Heuring and Peroutka, J. Neurosci., 7(3), 1987, 894-903; with only minor modifications. In vitro IC50 (nM) test values were determined for the compounds of this invention employing tritiated serotonin.
The compound `COc1cncnc1N1CCN(CCCc2c[nH]c3ccc(N(C)S(C)(=O)=O)cc23)CC1C` (stereo not drawn) [Example 66] gave an IC50 of 12 nM.

Take `COc1cncnc1N1CCN(CCCc2c[nH]c3ccc(NS(C)(=O)=O)cc23)CC1` [Example 63]: the half-maximal inhibitory concentration (IC50) came to 5.2 nM. Against the preceding compound, the IC50 is about 2.3-fold lower.

`COc1cncnc1N1CCN(CCCc2c[nH]c3ccc(OCc4ccccc4)cc23)CC1` [Example 72] gave an IC50 of 14.3 nM.

In turn, `CCS(=O)(=O)N(C)c1ccc2[nH]cc(CCCN3CCN(c4ncncc4OC)CC3)c2c1` [Example 68] displayed a half-inhibitory concentration (IC50) of 12.9 nM.

Compound `CCS(=O)(=O)N(C)c1ccc2[nH]cc(CCCN3CCN(c4ncncc4OC)C(C)C3)c2c1` (stereo not drawn) [Example 69] showed a 50% inhibitory concentration (IC50) of 19.1 nM.

Take `COc1cncnc1N1CCN(CCCc2c[nH]c3c(F)ccc(F)c23)CC1` [Example 75]: the IC50 was found to be 5.1 nM.

`CCOc1ccc2[nH]cc(CCCN3CCN(c4ncncc4OC)CC3)c2c1` [Example 71] returned a half-inhibitory concentration (IC50) of 2.2 nM.

As to `COc1cncnc1N1CCN(CCCc2c[nH]c3cc(F)c(F)cc23)CC1` [Example 74], the IC50 stood at 29 nM. This IC50 is about 13-fold higher than that of the compound before.

Compound `COc1cncnc1N1CCN(C(C)CCc2c[nH]c3ccccc23)CC1` (stereo not drawn) [Example 53] returned an IC50 of 5 nM.

The compound `COc1cncnc1N1CCN(CCCc2c[nH]c3c(F)cc(F)cc23)CC1` [Example 76] yielded an IC50 of 8.1 nM.

Compound `COc1cncnc1N1CCN(CCCc2c[nH]c3ccc(O)cc23)CC1` [Example 55, 1-[3-(5-Hydroxy-1H-indol-3-yl)propyl]-4-(5-methoxy-4-pyrimidinyl)piperazine] showed an IC50 of 0.8 nM.

The compound `COc1ccc2[nH]cc(CCCN3CCN(c4ncncc4OC)CC3)c2c1` [Example 73] gave a half-maximal inhibitory concentration (IC50) of 1.1 nM.

Turning to `COc1cncnc1N1CCN(CCCc2c[nH]c3ccccc23)CC1C` (stereo not drawn) [Example 62], the IC50 turned out to be 4.2 nM.

Compound `CCS(=O)(=O)Nc1ccc2[nH]cc(CCCN3CCN(c4ncncc4OC)C(C)C3)c2c1` (stereo not drawn) [Example 70] yielded an IC50 of 17.1 nM.

For `COc1cncnc1N1CCN(CCCc2c[nH]c3ccc(F)cc23)CC1` [Example 60], the IC50 came to 3 nM.

As for `CCC(CCc1c[nH]c2ccccc12)N1CCN(c2ncncc2OC)CC1` (stereo not drawn) [Example 54, 3-[3-[4-(5-Methoxy-4-pyrimidinyl)-1-piperazinyl]pentyl]indole], the IC50 worked out at 20.5 nM. This IC50 lies about 6.8-fold higher than the previous one.

`COc1cncnc1N1CCN(CCCc2c[nH]c3ccc(N(C)S(C)(=O)=O)cc23)CC1` [Example 65] yielded an IC50 of 4.9 nM.

Consider `CCS(=O)(=O)Nc1ccc2[nH]cc(CCCN3CCN(c4ncncc4OC)CC3)c2c1` [Example 67], for which the IC50 turned out to be 13.7 nM.

With `COc1cncnc1N1CCN(CCCc2c[nH]c3ccccc23)CC1` [Example 61], the IC50 is 2.9 nM.

Regarding `CCOc1cncnc1N1CCN(CCCc2c[nH]c3ccccc23)CC1` [Example 52, 4-(5-Ethoxy-4-pyrimidinyl)-1-[3-(1H-indol-3-yl)propyl]piperazine hydrochloride hydrate], the concentration for half-maximal inhibition (IC50) worked out at 2 nM. This IC50 and that of the compound before are within 1.5-fold of each other.

In another series the test system is migraine sufferers.
Assay: not given
Conditions: migraine patients; cited from earlier work.
As for `NCCc1c[nH]c2ccc(O)cc12` [serotonin], the “effect on migraine headache (in words)” value is listed as “effective in treating migraine attacks”.

For `NCCc1c[nH]c2ccc(O)cc12` [serotonin creatinine sulfate], the “effect on migraine headache (in words)” value is on record as “induced headache can be alleviated”.

On to `COC(=O)[C@H]1[C@H]2C[C@@H]3c4[nH]c5cc(OC)ccc5c4CCN3C[C@H]2C[C@@H](OC(=O)c2cc(OC)c(OC)c(OC)c2)[C@@H]1OC` [reserpine], for which the “effect on migraine headache (in words)” value was “induces a typical migraine-type headache”.

For another series, the system named is plasma serotonin.
Assay: not given
The following applies: intramuscular injection; cited from earlier work.
Take `COC(=O)[C@H]1[C@H]2C[C@@H]3c4[nH]c5cc(OC)ccc5c4CCN3C[C@H]2C[C@@H](OC(=O)c2cc(OC)c(OC)c(OC)c2)[C@@H]1OC` [reserpine]: the “effect on plasma serotonin (in words)” value is reported as “lowers plasma serotonin”.

System in a further series: not given
Assay: not given
The following applies: use in headache treatment; cited from earlier work.
For `NCCc1c[nH]c2ccc(O)cc12` [serotonin], the “side-effects / dependence (in words)” value is “restlessness, nausea, faintness, hyperpnea, facial flushing and parasthesias”.

Turning to `CN1C[C@H](C(=O)N[C@]2(C)O[C@@]3(O)[C@@H]4CCCN4C(=O)[C@H](Cc4ccccc4)N3C2=O)C=C2c3cccc4[nH]cc(c34)C[C@H]21` [ergotamine], the “side-effects / dependence (in words)” value was “cause dependence with extended use”.

As for `CC[C@@H](CO)NC(=O)[C@@H]1C=C2c3cccc4c3c(cn4C)C[C@H]2N(C)C1` [methysergide], the “side-effects / dependence (in words)” value was “severe use-limiting side-effects with long term usage”.
